Reference: patent publication US20230167103A1 (Bayer Aktiengesellschaft, priority 2020, published 2023)

Molecular target: T1, human DGKζ (Homo sapiens, UniProt Q13574)
T1 construct: made in house; host or cells: Sf9 insect cells, baculovirus
Assay: Human DGKζ kinase activity inhibition assay (ADP-Glo)
Assay type: biochemical
Conditions: example compounds; recombinant full-length human DGKζ, 1,2-dioleoyl-sn-glycerol 7 μM, ATP 55 μM, 20 min at 22° C.; read-out: IC50 values of examples in in vitro human DGKζ kinase activity inhibition assays
Method: Human diacylglycerol kinase zeta (DGKζ) inhibitory activity of compounds of the present invention was quantified employing the human DGKζ kinase activity assay as described in the following paragraphs. In essence, the enzyme activity was measured by quantification of the adenosine-di-phosphate (ADP) generated as a co-product of the enzyme reaction via the “ADP-Glo™ Kinase Assay” kit from the company Promega. This detection system works as follows: In a first step the adenosine-tri-phosphate (ATP) not consumed in the kinase reaction is quantitatively converted to cyclic adenosine-mono-phosphate (cAMP) employing an adenylate cyclase (“ADP-Glo-reagent”), then the adenylate cyclase is stopped and the ADP generated in the kinase reaction is converted to ATP, which subsequently generates in a luciferase-based reaction a glow-luminescence signal (“Kinase Detection Reagent”).
C-terminally FLAG-tagged, recombinant full-length human DGKζ (inhouse expressed in baculovirus infected insect cells, purified using anti-Flag pulldown and size exclusion chromatography) was used as enzyme. As an alternative, commercially available enzyme by Carnabio can be used. As substrate for the kinase, 1,2-dioleoyl-sn-glycerol, reconstituted in octyl-β-D-glucopyranoside micelles, was used. […] Subsequently, 22.55 volumes of a 510 mM solution of octyl-β-D-glucopyranoside (Sigma-Aldrich, Cat. #O8001-10G) in 50 mM MOPS buffer (pH 7.4) were added, and the mixture was sonicated in an ultrasonic bath for 20 s. Then 35 volumes of 50 mM MOPS buffer (pH 7.4) were added to yield a solution of 0.28 mM 1,2 dioleoyl-sn-glycerol and 200 mM octyl-β-D-glucopyranoside, which was aliquoted, flash-frozen in liquid nitrogen, and stored at −20° C. until use.
For the assay 50 nl of a 100-fold concentrated solution of the test compound in dimethyl sulfoxide (DMSO, Sigma) was pipetted into either a white 1536-well or a white low-volume 384-well microtiter plate (both Greiner Bio-One, Frickenhausen, Germany). […] The concentration of DGKζ was adjusted depending of the activity of the enzyme lot and was chosen appropriate to have the assay in the linear range, a typical concentration is about 0.1 nM. The reaction was stopped by the addition of 2.5 μL of “ADP-Glo-reagent” (1 to 1.5 diluted with water) and the resulting mixture was incubated at 22° C. for 1 h to convert the ATP not consumed in the kinase reaction completely to cAMP. Subsequently 2.5 μl of the “kinase detection reagent” (1.2 fold more concentrated than recommended by the producer) were added, the resulting mixture was incubated at 22° C. for 1 h and then the luminescence measured with a suitable measurement instrument (e.g. Viewlux™ from Perkin-Elmer). The amount of emitted light was taken as a measure for the amount of ADP generated and thereby for the activity of the DGKζ.
The data were normalised (enzyme reaction without inhibitor=0% inhibition, all other assay components but no enzyme=100% inhibition).

T1 sequence (Q13574 with tags, fused parts or gaps): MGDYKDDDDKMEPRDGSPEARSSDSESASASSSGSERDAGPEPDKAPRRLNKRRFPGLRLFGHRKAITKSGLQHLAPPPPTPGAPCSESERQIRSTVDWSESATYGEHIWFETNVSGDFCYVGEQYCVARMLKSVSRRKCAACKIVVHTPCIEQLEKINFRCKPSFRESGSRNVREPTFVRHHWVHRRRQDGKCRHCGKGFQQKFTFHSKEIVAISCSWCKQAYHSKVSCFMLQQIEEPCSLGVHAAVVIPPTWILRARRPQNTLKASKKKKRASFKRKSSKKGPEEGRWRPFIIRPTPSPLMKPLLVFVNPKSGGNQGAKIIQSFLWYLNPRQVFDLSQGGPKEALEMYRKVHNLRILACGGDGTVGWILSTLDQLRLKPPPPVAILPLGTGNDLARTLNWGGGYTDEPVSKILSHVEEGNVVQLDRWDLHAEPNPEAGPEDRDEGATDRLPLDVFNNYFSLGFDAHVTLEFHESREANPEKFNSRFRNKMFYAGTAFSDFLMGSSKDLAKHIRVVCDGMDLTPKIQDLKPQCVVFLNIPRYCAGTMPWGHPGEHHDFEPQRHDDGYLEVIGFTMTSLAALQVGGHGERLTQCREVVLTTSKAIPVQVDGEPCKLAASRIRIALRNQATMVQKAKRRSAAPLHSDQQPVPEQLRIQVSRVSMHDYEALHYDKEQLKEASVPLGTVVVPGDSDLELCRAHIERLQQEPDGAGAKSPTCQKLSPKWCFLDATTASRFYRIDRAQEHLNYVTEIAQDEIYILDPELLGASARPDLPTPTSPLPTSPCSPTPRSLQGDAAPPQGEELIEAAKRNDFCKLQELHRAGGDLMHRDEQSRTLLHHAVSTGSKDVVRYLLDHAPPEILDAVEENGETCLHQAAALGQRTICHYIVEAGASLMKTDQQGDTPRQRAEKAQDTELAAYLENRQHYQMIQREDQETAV

| SMILES | IC50 [nM] |
| --- | --- |
| CC(C(N)=O)N(c1ccc(F)c(F)c1)c1nc(N)c(C(=O)c2cc(C(=O)NC3(C)CCC3)no2)s1 (racemic) [Example 44, rac-5-[4-amino-2-(N-(2-amino-1-methyl-2-oxo-ethyl)-3,4-difluoro-anilino)thiazole-5-carbonyl]-N-(1-methylcyclobutyl)isoxazole-3-carboxamide] | 59 |
| CC(C(N)=O)N(c1ccc(F)c(F)c1)c1nc(N)c(C(=O)c2cc(C(=O)NC3CC(F)(F)C3)no2)s1 (racemic) [Example 45, rac-5-[4-amino-2-(N-(2-amino-1-methyl-2-oxo-ethyl)-3,4-difluoro-anilino)thiazole-5-carbonyl]-N-(3,3-difluorocyclobutyl)isoxazole-3-carboxamide] | 53 |
| CC(C(N)=O)N(c1ccc(F)c(F)c1)c1nc(N)c(C(=O)c2cc(C(=O)NC3CCCC3)no2)s1 (racemic) [Example 46, rac-5-[4-amino-2-(N-(2-amino-1-methyl-2-oxo-ethyl)-3,4-difluoro-anilino)thiazole-5-carbonyl]-N-cyclopentyl-isoxazole-3-carboxamide] | 77 |
| CC(C(N)=O)N(c1ccc(F)cc1)c1nc(N)c(C(=O)c2cc(C3CCCC3)no2)s1 (racemic) [Example 47, rac-2-(N-[4-amino-5-(3-cyclopentylisoxazole-5-carbonyl)thiazol-2-yl]-4-fluoro-anilino)propanamide] | 42 |
| CC(C)c1noc(C(=O)c2sc(N(c3ccc(F)cc3)C(C)C(N)=O)nc2N)n1 (racemic) [Example 49, rac-2-(N-[4-amino-5-(3-isopropyl-1,2,4-oxadiazole-5-carbonyl)thiazol-2-yl]-4-fluoro-anilino)propanamide] | 28 |
| CC(C(N)=O)N(c1ccc(F)cc1)c1nc(N)c(C(=O)c2nc(-c3ccccc3)no2)s1 (racemic) [Example 51, rac-2-(N-[4-amino-5-(3-phenyl-1,2,4-oxadiazole-5-carbonyl)thiazol-2-yl]-4-fluoro-anilino) propanamide] | 17 |
| CC(C(N)=O)N(c1ccc(F)cc1)c1nc(N)c(C(=O)c2nc(C(C)(C)C)no2)s1 (racemic) [Example 53, rac-2-(N-[4-amino-5-(3-tert-butyl-1,2,4-oxadiazole-5-carbonyl)thiazol-2-yl]-4-fluoro-anilino)propanamide] | 25 |
| CC(C(N)=O)N(c1ccc(F)cc1)c1nc(N)c(C(=O)c2nc(C3CC3)no2)s1 (racemic) [Example 57, rac-2-(N-[4-amino-5-(3-cyclopropyl-1,2,4-oxadiazole-5-carbonyl)thiazol-2-yl]-4-fluoro-anilino)propanamide] | 32 |
| CC(C(N)=O)N(c1ccc(F)cc1)c1nc(N)c(C(=O)c2nc(C3CCCC3)no2)s1 (racemic) [Example 59, rac-2-(N-[4-amino-5-(3-cyclopentyl-1,2,4-oxadiazole-5-carbonyl)thiazol-2-yl]-4-fluoro-anilino)propanamide] | 12 |
| CC(C(N)=O)N(c1ccc(F)cc1)c1nc(N)c(C(=O)c2cc(CN(C)C3CCCC3)no2)s1 (racemic) [Example 60, rac-2-(N-[4-amino-5-[3-[[cyclopentyl(methyl)amino]methyl]isoxazole-5-carbonyl]thiazol-2-yl]-4-fluoro-anilino)propanamide] | 58 |
| CC(C(N)=O)N(c1ccc(F)cc1)c1nc(N)c(C(=O)c2cc(CNC3(C)CCCC3)no2)s1 (racemic) [Example 61, rac-2-(Np[4-amino-5-[3-[[(1-methylcyclopentyl)amino]methyl]isoxazole-5-carbonyl]thiazol-2-yl]-4-fluoro-anilino)propanamide] | 98 |
| CC(C(N)=O)N(c1ccc(F)cc1)c1nc(N)c(C(=O)c2cc(CNC3CCCC3)no2)s1 (racemic) [Example 62, rac-2-(N-[4-amino-5-[3-[(cyclopentylamino)methyl]isoxazole-5-carbonyl]thiazol-2-yl]-4-fluoro-anilino)propanamide] | 194 |

Continued by falling IC50, values first:

| IC50 [nM] | SMILES |
| --- | --- |
| 751 | CC(C(N)=O)N(c1ccc(F)cc1)c1nc(N)c(C(=O)c2cc(CO)no2)s1 (racemic) [Example 65, rac-2-(N-[4-amino-5-[3-(hydroxymethyl)isoxazole-5-carbonyl]thiazol-2-yl]-4-fluoro-anilino)propanamide] |
| 412 | Cc1noc(C(=O)c2sc(N(c3ccc(F)cc3)C(C)C(N)=O)nc2N)n1 (racemic) [Example 52, rac-2-(N-[4-amino-5-(3-methyl-1,2,4-oxadiazole-5-carbonyl)thiazol-2-yl]-4-fluoro-anilino)propanamide] |
| 409 | CC(C(N)=O)N(c1ccc(F)cc1)c1nc(N)c(C(=O)c2cc(-c3ccccc3)ns2)s1 (racemic) [Example 50, rac-2-(N-[4-amino-5-(3-phenylisothiazole-5-carbonyl)thiazol-2-yl]-4-fluoro-anilino)propanamide] |
| 325 | CC(C(N)=O)N(c1ccc(F)cc1)c1nc(N)c(C(=O)c2nc(-c3cnn(C)c3)no2)s1 (racemic) [Example 58, rac-2-(N-[4-amino-5-[3-(1-methylpyrazol-4-yl)-1,2,4-oxadiazole-5-carbonyl]thiazol-2-yl]-4-fluoro-anilino)propanamide] |
| 306 | CC(C(N)=O)N(c1ccc(F)cc1)c1nc(N)c(C(=O)c2nc(-c3ccccn3)no2)s1 (racemic) [Example 54, rac-2-(N-[4-amino-5-[3-(2-pyridyl)-1,2,4-oxadiazole-5-carbonyl]thiazol-2-yl]-4-fluoro-anilino)propanamide] |
| 146 | CC(C(N)=O)N(c1ccc(F)cc1)c1nc(N)c(C(=O)c2cc(C(=O)N[C@H]3C[C@H](F)C3)no2)s1 (mixture of isomers) [Example 42, 5-[4-amino-2-(N-(2-amino-1-methyl-2-oxo-ethyl)-4-fluoro-anilino)thiazole-5-carbonyl]-N-(trans-3-fluorocyclobutyl)isoxazole-3-carboxamide] |
| 94 | CC(C(N)=O)N(c1ccc(F)cc1)c1nc(N)c(C(=O)c2cc(C(=O)NC3CCC(C)(C)C3)no2)s1 (racemic) [Example 43, 5-[4-amino-2-(N-(2-amino-1-methyl-2-oxo-ethyl)-4-fluoro-anilino)thiazole-5-carbonyl]-N-(3,3-dimethylcyclopentyl)isoxazole-3-carboxamide] |
| 88 | CC(C(N)=O)N(c1ccc(F)cc1)c1nc(N)c(C(=O)c2cc(CN3CCCCC3)no2)s1 (racemic) [Example 63, rac-2-(N-[4-amino-5-[3-(1-piperidylmethyl)isoxazole-5-carbonyl]thiazol-2-yl]-4-fluoro-anilino)propanamide] |
| 73 | CC(C(N)=O)N(c1ccc(F)cc1)c1nc(N)c(C(=O)c2cc(OC(F)F)no2)s1 (racemic) [Example 48, rac-2-(N-[4-amino-5-[3-(difluoromethoxy)isoxazole-5-carbonyl]thiazol-2-yl]-4-fluoro-anilino)propanamide] |
| 32 | CC(C(N)=O)N(c1ccc(F)cc1)c1nc(N)c(C(=O)c2cc(COc3ccc(C#N)cc3)no2)s1 (racemic) [Example 64, rac-2-(N-[4-amino-5-[3-[(4-cyanophenoxy)methyl]isoxazole-5-carbonyl]thiazol-2-yl]-4-fluoro-anilino)propanamide] |
| 29 | CC(C(N)=O)N(c1ccc(F)cc1)c1nc(N)c(C(=O)c2cc(COC(=O)Nc3ccccc3)no2)s1 (racemic) [Example 66, rac-[5-[4-amino-2-(N-(2-amino-1-methyl-2-oxo-ethyl)-4-fluoro-anilino)thiazole-5-carbonyl]isoxazol-3-yl]methyl N-phenylcarbamate] |
| 17 | CC(C(N)=O)N(c1ccc(F)cc1)c1nc(N)c(C(=O)c2nc(-c3cccc(F)c3)no2)s1 (racemic) [Example 55, rac-2-(N-[4-amino-5-[3-(3-fluorophenyl)-1,2,4-oxadiazole-5-carbonyl]thiazol-2-yl]-4-fluoro-anilino)propanamide] |
| 14 | Cc1cccc(-c2noc(C(=O)c3sc(N(c4ccc(F)cc4)C(C)C(N)=O)nc3N)n2)c1C (racemic) [Example 56, rac-2-(N-[4-amino-5-[3-(2,3-dimethylphenyl)-1,2,4-oxadiazole-5-carbonyl]thiazol-2-yl]-4-fluoro-anilino)propanamide] |
